Assay results published in patent EP0357092B1, “Preparation of diacetoxybenzylidene diacetates” (KUREHA KAGAKU KOGYO KABUSHIKI KAISHA, priority 1983, dated 1985).
Like-named read-outs stand apart in the source and are kept apart here.

Experiments:
[1] = test system: migration of polymorphonuclear leukocytes (PMN) to the site of inflammation; experiment: Suppression of migration of polymorphonuclear leukocytes, carboxymethylcellulose-pouch method; assay type: in vivo, male Donryu rats; conditions: rats, PMN counted 6 hours after injection into pouch
Procedure: While using groups of male Donryu rats (six rats per group) and following the carboxymethylcellulose-pouch method (refer to Ishikawa et al. […] ZASSHI (Journal of the Pharmaceutical Society of Japan), 88, 1472, 1968), the extent of inhibition of migration of polymorphonuclear leukocytes to the site of inflammation by present substance No.1 was examined. The specimen (present substance No.1) was dispersed in an aqueous 0.2 % solution of carboxymethylcellulose and the dispersion was administered to each rat at a predetermined dose rate, and only the aqueous 0.2 % solution of carboxymethylcellulose was administered to each rat of control group. The test was carried out by injecting the aqueous 0.2 % solution of carboxymethyl-cellulose into the pouch formed in the body of the rat and after 6 hours of the injection, the number of polymorphonuclear leukocytes in the exudate into the pouch was counted. […]

[2] = test system: proliferation of granuloma; experiment: Suppression of proliferation of granuloma, filter paper implant method of Fujimura; assay type: in vivo, male Donryu rats; conditions: once a day for 10 days, rats, dried granuloma weighed after 11 days
Procedure: While using groups of male Donryu rats in the fifth week after birth (5 rats per group), the activity of present substance No.1 in suppressing the proliferation of granuloma was tested by the method of Fujimura (refer to OYOYAKURI (Pharmacometrics), 19 (3), 329, 1980).
After soaking sheets of filter paper of 13 mm in diameter and 28 mg in weight into an aqueous 2% solution of carboxymethylcellulose containing both dihydroxystreptomycin and penicillin, each of 10⁶ unit at the respective concentration of 0.1 mg/ml, each of the thus treated sheets was buried subcutaneously into the back of each rat under anaesthesia by ether. […] After 11 days of the treatment, granuloma formed in the rat was removed, dried for 24 hours at 70°C and weighed.

[3] = Acute mammalian toxicity (oral LD50); conditions: mouse, in vivo
Procedure: After dispersing present substance No.1 in an aqueous 0.2 % solution of carboxymethylcellulose, the aqueous dispersion was orally administered to each of male Jcl-ICR mice. As a result, LD₅₀ (acute, oral) of the tested substance was larger than 4,000 mg/kg.

| SMILES | Rate of suppression of migration of PMN (%) ([1]; dose rate 5 mg/kg) | Granuloma Rate of Suppression (%) ([2]; dose rate 3 mg/kg/day oral) | LD50 ([3]; oral, male Jcl-ICR mice, dispersed in aqueous 0.2 % carboxymethylcellulose, read-out: LD₅₀ (acute, oral)) [mg/kg] | Rate of suppression of migration of PMN (%) ([1]; dose rate 50 mg/kg) | Granuloma Rate of Suppression (%) ([2]; dose rate 50 mg/kg/day oral) | LD50 ([3]; male, Jcl-ICR, po) [mg/kg] | Rate of suppression of migration of PMN (%) ([1]; dose rate 10 mg/kg) | Granuloma Rate of Suppression (%) ([2]; dose rate 5 mg/kg/day oral) | Granuloma Rate of Suppression (%) ([2]; dose rate 10 mg/kg/day oral) |
| --- | --- | --- | --- | --- | --- | --- | --- | --- | --- |
| COc1ccc2c(c1)c(CC(=O)O)c(C)n2C(=O)c1ccc(Cl)cc1 [Indomethacin, reference compound] | 35.7 |  |  |  |  |  |  |  |  |
| C[C@]12C=CC(=O)C=C1CC[C@@H]1[C@@H]2[C@@H](O)C[C@@]2(C)[C@H]1CC[C@]2(O)C(=O)CO [Prednisolone, reference compound] | 37.5 | 42.2 |  |  |  |  |  |  |  |
| O=Cc1ccc(O)c(O)c1 [3,4-dihydroxy-benzaldehyde, 3,4-dihydroxybenzaldehyde, reference compound] |  |  | 1500 | 27.5 | 35.6 |  |  |  |  |
| CC(=O)Oc1ccc(C(OC(C)=O)OC(C)=O)cc1OC(C)=O [Present Substance No.1, 3,4-diacetoxybenzylidene diacetate] | 41.2 |  |  | 51.9 | 61.4 | > 4000 | 48.0 | 42.8 | 55.3 |
